In PubChem BioAssay AID2060501 (Molecular Pharmacology Branch, DTP, NCI, 2025):
“And” between values parts separate entries of the source, which are not always exact repeats. Equal entries are not always repeated. Each block holds one compound with its values, some of them ahead of it.

Tested on: 282377-053-R-J1-PDC complex spheroids, viability
Experiment: Anticancer human tumor 282377-053-R-J1-PDC patient-derived colon adenocarcinoma cell line growth inhibition [GQUAD]
Details: for viability, T/C: stronger effect = lower value
Text: DNA G-quadruplex Stabilizer Agents in Combinations in Complex Spheroids
A high-throughput screen of multi-cell type tumor spheroids was designed to identify active combinations of DNA G-quadruplex stabilizer agents and targeted small molecules. Complex spheroids include a stromal component modeled by human endothelial cells (HUVEC) and fibroblasts modeled by human mesenchymal stem cells (MSCs). The concentration ranges selected for each drug and investigational agent were based upon clinically achievable concentrations if the clinical Cmax of the agent was known.
Compounds. The drugs and investigational agents: pidnarulex (CX-5461; NSC782164), APTO-253 (NSC789042), BRACO-19 (NSC847499), peposertib (NSC802822), ceralasertib (NSC780249), elimusertib (NSC800525), camonsertib (NSC841442), AZD-1390 (NSC803789), olaparib (NSC753686), talazoparib (NSC767125), ART-558 (NSC835418), sotorasib (NSC818433), MRTX-1133 (NSC836407), SN-38 (NSC673596), topotecan (NSC609699), etoposide (NSC141540), doxorubicin (NSC123127), gemcitabine (NSC613327), 5-fluorouracil (NSC19893), paclitaxel (NSC125973), vemurafenib (NSC761431), panobinostat (NSC761190), R-306465 (JNJ-16241199; NSC773264), adavosertib (NSC754352), TP-3654 (NSC805149), carboplatin (NSC241240), KSQ-4279 (NSC840948), and staurosporine (NSC755774) were obtained from the National Cancer Institute (NCI) Developmental Therapeutics Program Chemical Repository (34). The FDA-approved anticancer drug set is available from the NCI Developmental Therapeutics Program. […] The stock solutions were prepared in dimethyl sulfoxide (DMSO, Sigma-Aldrich, St. Louis, MO, cat. D2650) at 800-fold the tested concentration and stored at -70 degrees C prior to their use. All drugs and investigational agents were tested over a range starting from a high concentration at or near the clinical Cmax and decreasing in half-log increments. If the clinical Cmax for an agent had not been determined, the highest concentration tested was 10 microM.
2.3 Cell Culture. All cells were maintained in an incubator at 37 degrees C and 5% CO2 with 95% humidity. The PDC lines were cultured according to standard operating procedures established by the NCI PDMR. All PDCs were thawed and cultured in Matrigel-coated flasks prepared with a working solution of 1X Ham's F-12 nutrient mix, without supplementation (Invitrogen, cat. 11765054), 100 U/mL penicillin-streptomycin (Invitrogen, cat. 15140122), and 2.5% Matrigel (Corning Inc., cat. 354248) for the first three passages. The 857933-349-R-J2-PDC line was cultured in 6C/Colon 1B media, which includes advanced DMEM/F-12 (Thermo Fisher Scientific, cat. 12634028), 10 mM HEPES (Thermo Fisher Scientific, cat. 15630080), 1X GlutaMAX supplement (Thermo Fisher Scientific, cat. 35050061), 0.1 mg/mL primocin (InvivoGen, cat. ant-pm-2), 10% defined fetal bovine serum, heat inactivated (HyClone Laboratories Inc., cat. SH30070.03HI), 50% L-WRN conditioned media (ATCC, cat. CRL-3276), 1.25 mM N-Acetyl-L-cysteine (Sigma-Aldrich, cat. A9165), 10 mM nicotinamide (Sigma-Aldrich, cat. N0636), 1X B-27 supplement (Thermo Fisher Scientific, cat. 17504044), 1X N-2 supplement (Thermo Fisher Scientific, cat. 17502048), 10 microM Y-27632 dihydrochloride (Tocris Bioscience, cat. 1254), and 50 ng/mL human EGF recombinant protein (Thermo Fisher Scientific, cat. PHG0311). The 485176-168-R4-J1-PDC line was cultured in Panc media, which includes all 6C/Colon 1B media components plus 100 ng/mL human FGF-10 (Thermo Fisher Scientific, cat. 100-26), 500 nM SB-431542 (Selleckchem, cat. S1067), and gastrin (Tocris, cat. 3006).
[…]
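Further: spheroids exposed to compounds for 7 days before readout.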
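Wherever viability, T/C is given: percent of vehicle DMSO control viability with 100% = untreated-like growth.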

IC50 (curve of compound): 1890 nM and 4980 nM and 4340 nM
Structure (SMILES): CCCS(=O)(=O)Nc1ccc(F)c(C(=O)c2c[nH]c3ncc(-c4ccc(Cl)cc4)cc23)c1F
viability, T/C (compound 0.0316 µM): 117% and 88.2% and 74.2%
viability, T/C (compound 0.1 µM): 76.3% and 55.9% and 63.7%
viability, T/C (compound 0.316 µM): 90.1% and 68.8% and 55.6%
viability, T/C (compound 1 µM): 75.6% and 74.8% and 57.6%
viability, T/C (compound 3.16 µM): 29.3% and 72.3% and 66.7%
viability, T/C (compound 10 µM): 17.7% and 16.4% and 14.4%

IC50 (curve of compound): 491 nM and 478 nM and 530 nM
Structure (SMILES): CC1COCCN1c1cc(C2(O)CC3CCC(C2)O3)c2cnn(-c3ccn[nH]3)c2n1 (stereo not drawn)
viability, T/C (compound 0.0316 µM): 80.7% and 77.9% and 79.5%
viability, T/C (compound 0.1 µM): 70% and 87.8% and 83.6%
viability, T/C (compound 0.316 µM): 61.8% and 55.8% and 62.1%
viability, T/C (compound 1 µM): 33.2% and 34.6% and 34.8%
viability, T/C (compound 3.16 µM): 24.2% and 20.5% and 35.2%
viability, T/C (compound 10 µM): 16.9% and 16.5% and 24.2%

IC50 (curve of compound): 5010 nM and 1870 nM and 1780 nM
Structure (SMILES): C=CCn1c(=O)c2cnc(Nc3ccc(N4CCN(C)CC4)cc3)nc2n1-c1cccc(C(C)(C)O)n1
viability, T/C (compound 0.0316 µM): 88.3% and 90.1% and 98.2%
viability, T/C (compound 0.1 µM): 65.9% and 82.6% and 109%
viability, T/C (compound 0.316 µM): 65.6% and 85.4% and 103%
viability, T/C (compound 1 µM): 66.5% and 75% and 72.4%
viability, T/C (compound 3.16 µM): 72.8% and 29.1% and 28%
viability, T/C (compound 10 µM): 17.2% and 15.7% and 17.4%

Structure (SMILES): CC(C)(O)C1CCC(Nc2ccc3ncc(-c4cccc(C(F)(F)F)c4)n3n2)CC1 (stereo not drawn) + Cc1[nH]c2ccc(F)cc2c1-c1nc2c3cccnc3c3ncccc3c2[nH]1
IC50 (curve of first compound, second compound 0.0316 µM): > 10000 nM
IC50 (curve of first compound, second compound 0.1 µM): > 10000 nM
IC50 (curve of first compound, second compound 0.316 µM): > 10000 nM
IC50 (curve of first compound, second compound 1 µM): > 10000 nM
IC50 (curve of first compound, second compound 3.16 µM): > 10000 nM
IC50 (curve of first compound, second compound 10 µM): 2900 nM
viability, T/C (second compound 0.0316 µM, first compound 0.0316 µM): 107%
viability, T/C (second compound 0.0316 µM, first compound 0.1 µM): 95.9%
viability, T/C (second compound 0.0316 µM, first compound 0.316 µM): 114%
viability, T/C (second compound 0.0316 µM, first compound 1 µM): 103%
viability, T/C (second compound 0.0316 µM, first compound 3.16 µM): 86.1%
viability, T/C (second compound 0.0316 µM, first compound 10 µM): 76.9%
viability, T/C (second compound 0.1 µM, first compound 0.0316 µM): 122%
viability, T/C (second compound 0.1 µM, first compound 0.1 µM): 103%
viability, T/C (second compound 0.1 µM, first compound 0.316 µM): 91.5%
viability, T/C (second compound 0.1 µM, first compound 1 µM): 95.3%
viability, T/C (second compound 0.1 µM, first compound 3.16 µM): 103%
viability, T/C (second compound 0.1 µM, first compound 10 µM): 73.3%
viability, T/C (second compound 0.316 µM, first compound 0.0316 µM): 107%
viability, T/C (second compound 0.316 µM, first compound 0.1 µM): 96.7%
viability, T/C (second compound 0.316 µM, first compound 0.316 µM): 87.7%
viability, T/C (second compound 0.316 µM, first compound 1 µM): 95.1%
viability, T/C (second compound 0.316 µM, first compound 3.16 µM): 103%
viability, T/C (second compound 0.316 µM, first compound 10 µM): 91.9%
viability, T/C (second compound 1 µM, first compound 0.0316 µM): 115%
viability, T/C (second compound 1 µM, first compound 0.1 µM): 95.8%
viability, T/C (second compound 1 µM, first compound 0.316 µM): 88.8%
viability, T/C (second compound 1 µM, first compound 1 µM): 118%
viability, T/C (second compound 1 µM, first compound 3.16 µM): 81.4%
viability, T/C (second compound 1 µM, first compound 10 µM): 92.3%
viability, T/C (second compound 3.16 µM, first compound 0.0316 µM): 88.8%
viability, T/C (second compound 3.16 µM, first compound 0.1 µM): 71.1%
viability, T/C (second compound 3.16 µM, first compound 0.316 µM): 70.7%
viability, T/C (second compound 3.16 µM, first compound 1 µM): 79.2%
viability, T/C (second compound 3.16 µM, first compound 3.16 µM): 100%
viability, T/C (second compound 3.16 µM, first compound 10 µM): 63.1%
viability, T/C (second compound 10 µM, first compound 0.0316 µM): 61.9%
viability, T/C (second compound 10 µM, first compound 0.1 µM): 51.5%
viability, T/C (second compound 10 µM, first compound 0.316 µM): 75.6%
viability, T/C (second compound 10 µM, first compound 1 µM): 48.4%
viability, T/C (second compound 10 µM, first compound 3.16 µM): 46.9%
viability, T/C (second compound 10 µM, first compound 10 µM): 42.7%
